Results taken from patent US11672792B2, “Topical formulations comprising montelukast and combinations with mussel adhesive proteins” (ENLITISA (SHANGHAI) PHARMACEUTICAL CO., LTD, priority 2017, dated 2023).

What was measured:
[1] = tested on: carrageenan-induced acute inflammation in subcutaneous air pouch; assay: Air Pouch Model II (Example 2); format: in vivo, mice; parameters: Fibroplastic proliferation score / Inflammation score / Activity score / Edema Score / Sum (of histology scores): scale not given here; conditions: Dex 400 μg, Dopamine 2 mg, MAP 250 μg, Mon 100 μg
Experimental: In Table 6, “Dex” is an abbreviation for dexamethasone and “Dopamine” is a 4 mg/mL aqueous solution of dopamine hydrochloride (Shanghai Aladdin Bio-Chem Technology Co., Ltd., Shanghai, China).
The histological specimens were analysed and an inflammation score, an activity score and a fibroplastic proliferation score were estimated as in Example 1 above and are tabulated in Table 9 below.

[2] = tested on: carrageenan-induced acute inflammation in subcutaneous air pouch; assay: Air Pouch Model I (Example 1); format: in vivo, C57BL/6 mice; parameters: Activity score / Edema Score / Sum (of histology scores) / Fibroplastic proliferation score / Inflammation score: scale not given here; conditions: MAP 1.5 mg, Mon 200 μg; for Exudate volume / Pouch Wall Weight / Leukocyte count in exudate / Lymphocyte count in exudate / Monocyte count in exudate / Neutrophil count in exudate: doses/mouse: dexamethasone 200 μg; for Exudate volume / Pouch Wall Weight: 24 h after carrageenan
Experimental: Healthy adult male C57BL/6 mice weighing between 20 and 30 g were supplied by Changzhou Cvens Experimental Animal Co. Ltd (Changzhou, Jiangsu Province, China). Prior to any experiments being conducted, mice were housed under standardized conditions (at a constant temperature or 22 t 2° C., with alternating 12 hour periods of light and darkness), and were fed on a standard mouse diet with water, for about a week.
General anesthesia was induced using intraperitoneal 3% chloral hydrate (Sinopharm Chemical Reagent Co., Ltd., Shanghai, China); 1 mL/10 g of body weight). The hair of the entire dorsum was shaved and depilated 1 day before sterile air injection.
Air pouches were produced by subcutaneous injection of sterile air (5 mL) into the intrascapular area of the mice. After three days, another injection of air (3 mL) was performed to maintain the pouches. In order to induce acute inflammation, three days after this final injection, animals received an injection of sterile carrageenan solution (CP Kelco, Taixing, Jiangsu Province, China; 1%, 0.5 mL; produced by adding 0.1 g of carrageenan powder into a beaker containing 10 mL of 0.9% saline solution and stirring). Mice were pre-treated with test samples or vehicle 1 hour before and 23 hours after the carrageenan injection into the subcutaneous air pouch. Animals were sacrificed 24 hours after the carrageenan injection.
Skin biopsies were taken from the air pouches. A part of the biopsy was fixed in formalin (produced by adding ultra pure water to 50 mL of a 40% formaldehyde solution (Nanchang Rain Dew Experimental Equipment Co., Ltd., Nanchang, […] Provence, China) up to a total volume of 500 mL) and analyzed by histological embedding in paraffin wax, sectioning and staining.
The cavity was washed with 4 mL of sterile phosphate buffer solution (pH 7.4; prepared by dissolving 4 g of NaCl, 0.1 g of KCl, 1.749 g of Na2HPO4.12H2O and 0.1 g of KH2PO4 in ultrapure water, adjusting the pH to 7.4 with HCl and diluting with water to a total volume of 500 mL).
Exudates were collected and volumes were quantified. The total number of cells was determined with a haematocytometer (ADVIA 2120 Hematology System, Siemens Healthineers).
In Table 1, MAP is a Mefp-1 solution, which is was prepared as follows. Blue mussels were harvested in the coastal area of Shandong Province, China. Mussel feet were collected, cut into small pieces and homogenized in an extraction buffer comprising 5% acetic acid in 4 mol/L of aqueous urea. The crude extracts were collected after centrifuging and then purified by liquid chromatography. […] The solutions that were employed below were prepared by adding saline solution to this semi-finished product to obtain a concentration as described in Table 1.

[3] = tested on: carrageenan-induced acute inflammation in subcutaneous air pouch; assay: Air Pouch Model: Combination of Montelukast (Example 5); format: in vivo, mice; conditions: MAP 1.5 mg, Mon 200 μg; for Exudate volume / Pouch Wall Weight: doses/mouse: dexamethasone 200 μg
[4] = tested on: carrageenan-induced acute inflammation in subcutaneous air pouch; assay: Air Pouch Model: Topical Administration Versus Oral Administration (Example 4); conditions: 200 μg/mouse, Mon-O intragastric; for Exudate volume / Pouch Wall Weight: others injected into pouch
[5] = dexamethasone 200 μg, listed as Mon (oral)
[6] = dexamethasone 200 μg, listed as Mon (topical)
[7] = pouch wall histology, dexamethasone 200 μg, listed as Mon (oral)
[8] = pouch wall histology, dexamethasone 200 μg, listed as Mon (topical)
[9] = dexamethasone 200 μg, listed as MON-O
[10] = others into pouch, listed as Mon-O
[11] = others into pouch, listed as Mon-T

CC(C)(O)c1ccccc1CC[C@@H](SCC1(CC(=O)O)CC1)c1cccc(/C=C/c2ccc3ccc(Cl)cc3n2)c1 [Mon, Montelukast sodium]
Fibroplastic proliferation score [1]: 0.00 | IFN-γ in exudate (ELISA) [2, 5]: 2495 ± 711 | IL-6 in exudate (ELISA) [2, 5]: 8453 ± 9758 | IL-10 in exudate (ELISA) [2, 5]: 52.59 ± 7.22 | TNF-α in exudate (ELISA) [2, 5]: 39.41 ± 17.62 | IFN-γ in exudate (ELISA) [2, 6]: 1690 ± 725 | IL-6 in exudate (ELISA) [2, 6]: 2528 ± 1538 | IL-10 in exudate (ELISA) [2, 6]: 68.18 ± 15.81 | TNF-α in exudate (ELISA) [2, 6]: 90.73 ± 109.02 | Exudate volume ([2]; listed as Mon (oral)): 3.58 ± 0.15 mL | Pouch Wall Weight ([2]; listed as Mon (oral)): 0.67 ± 0.10 g | Exudate volume ([2]; listed as Mon (topical)): 3.68 ± 0.15 mL | Pouch Wall Weight ([2]; listed as Mon (topical)): 0.66 ± 0.13 g | Leukocyte count in exudate ([2]; listed as Mon (oral)): 2.38e+08 mL⁻¹ | Lymphocyte count in exudate ([2]; listed as Mon (oral)): 1.98e+08 mL⁻¹ | Monocyte count in exudate ([2]; listed as Mon (oral)): 7e+06 mL⁻¹ | Neutrophil count in exudate ([2]; listed as Mon (oral)): 2.1e+07 mL⁻¹ | Leukocyte count in exudate ([2]; listed as Mon (topical)): 3.82e+08 mL⁻¹ | Lymphocyte count in exudate ([2]; listed as Mon (topical)): 3.22e+08 mL⁻¹ | Monocyte count in exudate ([2]; listed as Mon (topical)): 1.7e+07 mL⁻¹ | Neutrophil count in exudate ([2]; listed as Mon (topical)): 2.9e+07 mL⁻¹ | Activity score ([2]; pouch wall histology, dexamethasone 200 μg): 1.00 | Edema Score [2, 7]: 1.00 | Fibroplastic proliferation score [2, 7]: 0.33 | Sum (of histology scores) [2, 7]: 4.17 | Fibroplastic proliferation score [2, 8]: 0.83 | Inflammation score [2, 8]: 2.17 | Sum (of histology scores) [2, 8]: 5.50 | Activity score ([3]; dexamethasone 200 μg): 1.00 | Fibroblast proliferation score ([3]; dexamethasone 200 μg): 0.83 | Inflammation score ([3]; dexamethasone 200 μg): 2.17 | Leukocyte count in exudate ([3]; dexamethasone 200 μg): 3.82e+06 mL⁻¹ | Lymphocyte count in exudate ([3]; dexamethasone 200 μg): 3.22e+06 mL⁻¹ | Monocyte count in exudate ([3]; dexamethasone 200 μg): 170000 mL⁻¹ | Neutrophil count in exudate ([3]; dexamethasone 200 μg): 290000 mL⁻¹ | Sum (of histology scores) ([3]; dexamethasone 200 μg): 5.50 | Edema Score [3, 9]: 1.00 | Fibroblast proliferation score [3, 9]: 0.33 | Leukocyte count in exudate [3, 9]: 2.38e+06 mL⁻¹ | Lymphocyte count in exudate [3, 9]: 1.98e+06 mL⁻¹ | Monocyte count in exudate [3, 9]: 70000 mL⁻¹ | Neutrophil count in exudate [3, 9]: 210000 mL⁻¹ | Sum (of histology scores) [3, 9]: 4.17 | IFN-γ in exudate (ELISA) [3, 5]: 2495 ± 711 | IL-6 in exudate (ELISA) [3, 5]: 8453 ± 9758 | IL-10 in exudate (ELISA) [3, 5]: 52.59 ± 7.22 | TNF-α in exudate (ELISA) [3, 5]: 39.41 ± 17.62 | IFN-γ in exudate (ELISA) [3, 6]: 1690 ± 725 | IL-6 in exudate (ELISA) [3, 6]: 2528 ± 1538 | IL-10 in exudate (ELISA) [3, 6]: 68.18 ± 15.81 | TNF-α in exudate (ELISA) [3, 6]: 90.73 ± 109.02 | Exudate volume [3]: 3.68 ± 0.15 mL | Pouch Wall Weight [3]: 0.66 ± 0.13 g | Exudate volume ([3]; listed as MON-O): 3.58 ± 0.15 mL | Pouch Wall Weight ([3]; listed as MON-O): 0.67 ± 0.10 g | Exudate volume ([4]; listed as Mon-O): 3.69 ± 0.14 mL | Pouch Wall Weight ([4]; listed as Mon-O): 0.68 ± 0.08 g | Exudate volume ([4]; listed as Mon-T): 3.54 ± 0.09 mL | Pouch Wall Weight ([4]; listed as Mon-T): 0.65 ± 0.06 g | Activity score [4, 10]: 1.67 | Edema Score [4, 10]: 2.17 | IFN-γ in exudate (ELISA) [4, 10]: 557.95 ± 231.86 | IL-6 in exudate (ELISA) [4, 10]: 500.25 ± 292.84 | Inflammation score [4, 10]: 2.33 | Leukocyte count in exudate [4, 10]: 2.66e+06 mL⁻¹ | Sum (of histology scores) [4, 10]: 6.17 | TNF-α in exudate (ELISA) [4, 10]: 146.3 ± 70.74 | Activity score [4, 11]: 1.00 | IFN-γ in exudate (ELISA) [4, 11]: 568.19 ± 316.70 | IL-6 in exudate (ELISA) [4, 11]: 312.05 ± 189.23 | Inflammation score [4, 11]: 2.00 | Leukocyte count in exudate [4, 11]: 2.19e+06 mL⁻¹ | TNF-α in exudate (ELISA) [4, 11]: 80.37 ± 61.72
